Results published in patent publication EP1115421B1, “USE OF GLP-1 OR ANALOGS IN TREATMENT OF STROKE” (ELI LILLY AND COMPANY, priority 1998, dated 2009).
Where no end group is shown, it is not given here.

Legend:
[1] = tested on: patients having non-insulin dependent diabetes (NIDDM); assay: Overnight subcutaneous infusion in NIDDM patients, blood glucose (Example 1); type: in vivo
[2] = tested on: NIDDM patients; assay: Infusion during meals in NIDDM patients, blood glucose (Example 2); type: in vivo; details: while infused, three hours during breakfast, lunch and dinner; compared with insulin injection; five NIDDM patients

**Q.** Which results are given for “GLP-1(7-36) amide (HAEGTFTSDVSSYLEGQAAKEFIAWLVKGR-NH2; UniProt P01275 98-127, looked up, fragment) [truncated glucagon-like peptide 1, C-terminal amide]”?
**A.** metabolic control ([1]; compared with continuous insulin infusion, average blood glucose significantly lower at 23:00, 0:00 and 1:00): better than that achieved by insulin; effect on blood glucose ([1]; subcutaneous infusion 1.2 pmol/kg/hr, ten hours during the night, five NIDDM patients): nearly normalized blood glucose; post-prandial glucose excursions [2]: eliminated
